Results on 6 molecules are retold here after ChEMBL document CHEMBL4831492, “Design and synthesis of 2-(2-isonicotinoylhydrazineylidene)propanamides as InhA inhibitors with high antitubercular activity” (Eur J Med Chem, 2021).

Converted amounts (≈) assume the structure as drawn. The source made the active and inactive calls. The calls are words filed in the database; no cut-off is given here.

Data set [1] concerns Mycobacterium tuberculosis. The data set is described as follows: Antimycobacterial activity against drug susceptible Mycobacterium tuberculosis H37Rv assessed as minimal inhibitory concentration required for complete inhibition of mycobacterial growth incubated for 14 days. The note with it: 336 h, time 14 day. The format is functional.
The test system of data set [2] is Mycobacterium tuberculosis. The data set is described as follows: Antimycobacterial activity against drug susceptible Mycobacterium tuberculosis H37Rv assessed as minimal inhibitory concentration required for complete inhibition of mycobacterial growth incubated for 21 days. The note with it: 504 h, time 21 day. The format is functional.
The test system of data set [3] is Mycobacterium kansasii. Nature of the data set: Antimycobacterial activity against drug resistant Mycobacterium kansasii 6509/96 assessed as minimal inhibitory concentration required for complete inhibition of mycobacterial growth incubated for 7 days. The data set is classed as functional. The conditions noted are these: 6509/96, 168 h, time 7 day.
For data set [4], the system named is Mycobacterium kansasii. Nature of the data set: Antimycobacterial activity against drug resistant Mycobacterium kansasii 6509/96 assessed as minimal inhibitory concentration required for complete inhibition of mycobacterial growth incubated for 14 days. The data set is classed as functional. The conditions noted are these: 6509/96, 336 h, time 14 day.
The test system of data set [5] is Mycobacterium kansasii. Nature of the data set: Antimycobacterial activity against drug resistant Mycobacterium kansasii 6509/96 assessed as minimal inhibitory concentration required for complete inhibition of mycobacterial growth incubated for 21 days. The note with it: 6509/96, 504 h, time 21 day. The data set is classed as functional.
Data set [6] deals with Mycobacterium kansasii. Nature of the data set: Antimycobacterial activity against drug resistant Mycobacterium kansasii 235/80 assessed as minimal inhibitory concentration required for complete inhibition of mycobacterial growth incubated for 7 days. The conditions noted are these: 235/80, 168 h, time 7 day. The format is functional.
Data set [7] has as its system HepG2. Nature of the data set: Cytotoxicity against human HepG2 cells assessed as reduction in cell viability incubated overnight followed by compound washout by MTT assay. The format is cell-based. On the technique in general: Tetrazolium assays rely on reduction of a dye to a coloured formazan, in cell work by metabolically active cells.
Data set [8] relates to HepG2. The data set is described as follows: Cytostatic activity in human HepG2 cells assessed as reduction in cell viability incubated overnight followed by compound washout and further incubated for 72 hrs in medium containing serum by MTT assay. The conditions noted are these: HepG2, 72 h. The data set is classed as functional, cell-based.
Data set [9] concerns Mycobacterium avium. The data set is described as follows: Antimycobacterial activity against drug resistant Mycobacterium avium 330/88 assessed as inhibition of mycobacterial growth at 125 uM incubated for 14 days. The note with it: time 14.0 day. The data set is classed as functional, organism-based.
Data set [10] deals with Mycobacterium avium. The data set is described as follows: Antimycobacterial activity against drug resistant Mycobacterium avium 330/88 assessed as inhibition of mycobacterial growth at 125 uM incubated for 21 days. The data set is classed as functional, organism-based. The conditions noted are these: time 21.0 day.
Data set [11] deals with Mycobacterium kansasii. Nature of the data set: Antimycobacterial activity against drug resistant Mycobacterium kansasii 235/80 assessed as inhibition of mycobacterial growth at 62.5 uM incubated for 14 days. The format is functional, organism-based. The note with it: time 14.0 day.
Data set [12] deals with Mycobacterium kansasii. The data set is described as follows: Antimycobacterial activity against drug resistant Mycobacterium kansasii 235/80 assessed as inhibition of mycobacterial growth at 62.5 uM incubated for 21 days. The data set is classed as functional, organism-based. The note with it: time 21.0 day.
The nature of data set [13]: Selectivity index, ratio of CC50 for cytotoxicity against human HepG2 cells to MIC for antimycobacterial activity against drug susceptible Mycobacterium tuberculosis H37Rv. The format is toxicity, cell-based. The conditions noted are these: read-out: Selectivity Index.
The nature of data set [14]: Selectivity index, ratio of CC50 for cytotoxicity against human HepG2 cells to MIC for antimycobacterial activity against drug susceptible Mycobacterium […]. The conditions noted are these: read-out: Selectivity Index. The format is toxicity, cell-based.
Data set [15] concerns Mycobacterium avium. The data set is described as follows: Antimycobacterial activity against drug resistant Mycobacterium avium 330/88 assessed as inhibition of mycobacterial growth at 500 uM incubated for 14 days. The note with it: time 14.0 day. The format is functional, organism-based.
The subject of data set [16] is Mycobacterium avium. Nature of the data set: Antimycobacterial activity against drug resistant Mycobacterium avium 330/88 assessed as inhibition of mycobacterial growth at 500 uM incubated for 21 days. The data set is classed as functional, organism-based. The note with it: time 21.0 day.
Data set [17] deals with Mycobacterium kansasii. Nature of the data set: Antimycobacterial activity against drug resistant Mycobacterium kansasii 235/80 assessed as minimal inhibitory concentration required for complete inhibition of mycobacterial growth incubated for 14 days. The format is functional. The note with it: 235/80, 336 h, time 14 day.
The test system of data set [18] is Mycobacterium kansasii. Nature of the data set: Antimycobacterial activity against drug resistant Mycobacterium kansasii 235/80 assessed as minimal inhibitory concentration required for complete inhibition of mycobacterial growth incubated for 21 days. The conditions noted are these: 235/80, 504 h, time 21 day. The format is functional.
Data set [19] relates to Mycobacterium tuberculosis. The data set is described as follows: Antimycobacterial activity against Mycobacterium tuberculosis H37Ra carrying pMC261/pVV16 plasmid assessed as bacterial growth inhibition incubated for 28 days by drop dilution method. The conditions noted are these: 672 h, time 28 day. The format is functional.
Data set [20] relates to Mycobacterium tuberculosis. Nature of the data set: Inhibition of mycolic acid synthesis in Mycobacterium tuberculosis H37Ra assessed as decrease in production of trehalose monomycolates at MIC incubated for 24 hrs followed by 14C labelling and further incubated for 24 hrs by TLC based autoradiography analysis. The data set is classed as functional, organism-based. The conditions noted are these: time 48.0 hrs.

Data set [21] relates to Mycobacterium tuberculosis. The data set is described as follows: Inhibition of mycolic acid synthesis in Mycobacterium tuberculosis H37Ra assessed as decrease in production of trehalose dimycolates at MIC incubated for 24 hrs followed by 14C labelling and further incubated for 24 hrs by TLC based autoradiography analysis. The format is functional, organism-based. The note with it: time 48.0 hrs.

The test system of data set [22] is Mycobacterium tuberculosis. The data set is described as follows: Inhibition of mycolic acid synthesis in Mycobacterium tuberculosis H37Ra assessed as decrease in production of mycolic acid at MIC incubated for 24 hrs followed by 14C addition and further incubated for 24 hrs by TLC based autoradiography analysis. The data set is classed as functional, organism-based. The conditions noted are these: time 48.0 hrs.

Data set [23] concerns Mycobacterium tuberculosis. Nature of the data set: Inhibition of mycolic acid synthesis in Mycobacterium tuberculosis H37Ra assessed as decrease in production of standard fatty acid at MIC incubated for 24 hrs followed by 14C labelling and further incubated for 24 hrs by TLC based autoradiography analysis. The format is functional, organism-based. The conditions noted are these: time 48.0 hrs.

The subject of data set [24] is Mycobacterium avium. The data set is described as follows: Antimycobacterial activity against drug resistant Mycobacterium avium 330/88 assessed as minimal inhibitory concentration required for complete inhibition of mycobacterial growth incubated for 14 days. The data set is classed as functional. The conditions noted are these: 330/88, 336 h, time 14 day.
In data set [25] the test system is Mycobacterium avium. The data set is described as follows: Antimycobacterial activity against drug resistant Mycobacterium avium 330/88 assessed as minimal inhibitory concentration required for complete inhibition of mycobacterial growth incubated for 21 days. The data set is classed as functional. The conditions noted are these: 330/88, 504 h, time 21 day.
Data set [26] relates to Mycobacterium avium. Nature of the data set: Antimycobacterial activity against drug resistant Mycobacterium avium 330/88 assessed as inhibition of mycobacterial growth at 250 uM incubated for 14 days. The data set is classed as functional, organism-based. The note with it: time 14.0 day.
Data set [27] deals with Mycobacterium avium. The data set is described as follows: Antimycobacterial activity against drug resistant Mycobacterium avium 330/88 assessed as inhibition of mycobacterial growth at 250 uM incubated for 21 days. The data set is classed as functional, organism-based. The note with it: time 21.0 day.

As to `C/C(=N\NC(=O)c1ccncc1)C(=O)Nc1cccc(Cl)c1`, the MIC (commonly the lowest concentration that inhibits growth of the organism) in [1] was 0.125 µM (≈ 0.0396 µg/mL); in data set [2], 0.125 µM (≈ 0.0396 µg/mL); in the data set with Mycobacterium kansasii [3], 2 µM (≈ 0.633 µg/mL); in the data set with Mycobacterium kansasii [4], 2 µM (≈ 0.633 µg/mL); in the data set with Mycobacterium kansasii [5], 4 µM (≈ 1.27 µg/mL); with Mycobacterium kansasii [6], 32 µM (≈ 10.1 µg/mL). The IC50 in the data set with HepG2 [7] and with HepG2 [8] was more than 50 µM each time. In addition, the result with Mycobacterium avium [9], in the data set with Mycobacterium avium [10], with Mycobacterium kansasii [11] and in the data set on Mycobacterium kansasii [12] was inactive. The results for the selectivity ratio in data set [13] and in data set [14] were more than 400 and more than 12.5, respectively.
Take `C/C(=N\NC(=O)c1ccncc1)C(=O)Nc1cccc(OC(F)(F)F)c1`: the minimal inhibitory concentration (MIC) in data set [1] amounted to 0.125 µM (≈ 0.0458 µg/mL); in data set [2], 0.5 µM (≈ 0.183 µg/mL); with Mycobacterium kansasii [3] it was 4 µM (≈ 1.47 µg/mL); in the data set with Mycobacterium kansasii [4] it was 8 µM (≈ 2.93 µg/mL); in the data set with Mycobacterium kansasii [5], 8 µM (≈ 2.93 µg/mL). Further, the result in the data set on Mycobacterium avium [15] and in the data set with Mycobacterium avium [16] was inactive.
Regarding `C/C(=N\NC(=O)c1ccncc1)C(=O)Nc1ccc(OC(F)(F)F)cc1`, the MIC in data set [1] is not above 0.03 µM; in [2] it was not above 0.03 µM; in the data set on Mycobacterium kansasii [3], 2 µM (≈ 0.733 µg/mL); in the data set on Mycobacterium kansasii [4] it was 2 µM (≈ 0.733 µg/mL); with Mycobacterium kansasii [5] it was 4 µM (≈ 1.47 µg/mL); with Mycobacterium kansasii [6] it was 8 µM (≈ 2.93 µg/mL). Also, the MIC was determined as 8 µM (≈ 2.93 µg/mL) in the data set with Mycobacterium kansasii [17], 16 µM (≈ 5.86 µg/mL) in the data set with Mycobacterium kansasii [18] and 0.3 µM (≈ 0.11 µg/mL) in data set [19]. For the same molecule, the inhibition entry in data set [20], in data set [21] and in [22] was “Active” in each case. For the same molecule, the inhibition entry in [23] is “inactive”. Moreover, the IC50 in the data set on HepG2 [7] and in the data set with HepG2 [8] was more than 50 µM each time. The result in the data set on Mycobacterium avium [9] and in the data set on Mycobacterium avium [10] was inactive. For the same molecule, the selectivity ratio is more than 1670 in [13] and more than 12.5 in data set [14].
For `C/C(=N\NC(=O)c1ccncc1)C(=O)Nc1ccc(I)cc1`, the minimal inhibitory concentration (MIC) in data set [1] was 0.25 µM (≈ 0.102 µg/mL); in [2], 0.25 µM (≈ 0.102 µg/mL); in the data set with Mycobacterium avium [24], 250 µM (≈ 102 µg/mL); in the data set on Mycobacterium avium [25], 250 µM (≈ 102 µg/mL); in the data set on Mycobacterium kansasii [3], 2 µM (≈ 0.816 µg/mL); with Mycobacterium kansasii [4], 4 µM (≈ 1.63 µg/mL). Also, the MIC with Mycobacterium kansasii [5] came to 4 µM (≈ 1.63 µg/mL); in the data set on Mycobacterium kansasii [6], 8 µM (≈ 3.27 µg/mL); with Mycobacterium kansasii [17], 8 µM (≈ 3.27 µg/mL); with Mycobacterium kansasii [18], 8 µM (≈ 3.27 µg/mL); in data set [19], 0.5 µM (≈ 0.204 µg/mL). The inhibition result in data set [20], in data set [21] and in data set [22] was “Active” each time. In addition, the inhibition result in data set [23] is “inactive”. For the same molecule, the IC50 in the data set on HepG2 [7] and in the data set with HepG2 [8] was more than 50 µM throughout. The selectivity ratio in data set [13] is more than 200; in data set [14], more than 12.5.
For `C/C(=N\NC(=O)c1ccncc1)C(=O)Nc1ccc(SC(F)(F)F)cc1`, the MIC was found to be 0.5 µM (≈ 0.191 µg/mL) in data set [1]; 0.5 µM (≈ 0.191 µg/mL) in data set [2]; 4 µM (≈ 1.53 µg/mL) in the data set with Mycobacterium kansasii [3]; 4 µM (≈ 1.53 µg/mL) with Mycobacterium kansasii [4]; 4 µM (≈ 1.53 µg/mL) in the data set on Mycobacterium kansasii [5]. The outcome with Mycobacterium avium [26] and in the data set with Mycobacterium avium [27] was inactive.
In the case of `C/C(=N\NC(=O)c1ccncc1)C(=O)Nc1ccc(C(F)(F)F)cc1`, the MIC was not above 0.03 µM in data set [1]; not above 0.03 µM in [2]; 2 µM (≈ 0.701 µg/mL) in the data set with Mycobacterium kansasii [3]; 4 µM (≈ 1.4 µg/mL) in the data set with Mycobacterium kansasii [4]; 4 µM (≈ 1.4 µg/mL) in the data set on Mycobacterium kansasii [5]; 8 µM (≈ 2.8 µg/mL) with Mycobacterium kansasii [6]. Also, the MIC in the data set on Mycobacterium kansasii [17] amounted to 16 µM (≈ 5.6 µg/mL); with Mycobacterium kansasii [18] it was 32 µM (≈ 11.2 µg/mL). The IC50 with HepG2 [7] and in the data set with HepG2 [8] was more than 50 µM throughout. Also, the result with Mycobacterium avium [9] and with Mycobacterium avium [10] was inactive. For the same molecule, the values for the selectivity ratio in data set [13] and in [14] were more than 1670 and more than 12.5, respectively.
